In US20230114728A1 (Venatorx Pharmaceuticals, Inc., priority 2019, published 2023):
Values after ≈ are worked out from the molar mass of the structure shown. Like-named read-outs stand apart in the source and are kept apart here.

Key:
E. coli K12 PBP3 = target: T1, E. coli K12 PBP3 (Escherichia coli, UniProt P0AD68); assay: biochemical; type: binding
T1 construct: made in house
Procedure, shortened: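 Fluorescence polarization (ex 490/em 520 nm) competition of inhibitors against Bocillin-FL at 0.1 μM, read up to 60 min. Final PBP levels: E. coli PBP3 1.5 μM; A. baumannii PBP2 2.5 μM, PBP3 0.2 μM in Tris pH 8.0/NaCl/glycerol/Tween 20; N. gonorrhoeae PBP2 […] in Hepes pH 8.0/NaCl/glycerol. EC50 = concentration halving PBP-bound Bocillin-FL.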

A. baumannii ATCC 19606 = assay: Broth microdilution MIC in CAMHB; type: cell-based; conditions: Acinetobacter baumannii
Procedure, shortened: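 CLSI microdilution; CAMHB; inoculum 2-8×10^5 CFU/mL from 3-5 h 37° C culture; 2-fold compound series; 16-20 h, 37° C; MIC = lowest well without visible growth.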

E. coli 901C = assay: Broth microdilution MIC in CAMHB; type: cell-based; conditions: Escherichia coli, read-out: Minimum Inhibitory Concentration, E. coli 901C
Procedure, shortened: (§1)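 MIC, read by eye, is the lowest compound concentration giving no bacterial growth after 16-20 h at 37° C. Test compounds are serially diluted 2-fold in CAMHB and seeded with 2-8×10^5 CFU/mL of bacteria taken from a 3-5 h shaking culture, following CLSI methods.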

E. coli AG100 = assay: Broth microdilution MIC in CAMHB; type: cell-based; conditions: Escherichia coli
Procedure, shortened: as §1

[1] = system: K. pneumoniae 848844 producing SHV-11 and KPC-2; assay: Broth microdilution MIC in CAMHB; type: cell-based; conditions: Klebsiella pneumoniae, read-out: Minimum Inhibitory Concentration, K. pneumoniae 848844
Procedure, shortened: as §1

[2] = system: K. pneumoniae SI-117 producing VIM-1; assay: Broth microdilution MIC in CAMHB; type: cell-based; conditions: Klebsiella pneumoniae, read-out: Minimum Inhibitory Concentration, K. pneumoniae SI-117
Procedure, shortened: as §1

[3] = system: K. pneumoniae UMM producing SHV-5 and KPC-2; assay: Broth microdilution MIC in CAMHB; type: cell-based; conditions: Klebsiella pneumoniae, read-out: Minimum Inhibitory Concentration, K. pneumoniae UMM
Procedure, shortened: as §1

P. aeruginosa ATCC 27853 = assay: Broth microdilution MIC in CAMHB; type: cell-based; conditions: Pseudomonas aeruginosa
Procedure, shortened: as §1

P. aeruginosa ATCC 35151 = assay: Broth microdilution MIC in CAMHB; type: cell-based; conditions: Pseudomonas aeruginosa
Procedure, shortened: as §1

[4] = ATCC19606, MHB, read-out: Minimum Inhibitory Concentration, A. baumannii ATCC 19606
[5] = E. coli 901C (hyper-permeable), MHB
[6] = E. coli AG100 (wild-type parent), MHB, read-out: Minimum Inhibitory Concentration, E. coli AG100
[7] = ATCC35151, MHB, hyper-permeable strain, read-out: Minimum Inhibitory Concentration, P. aeruginosa ATCC 35151

T1 sequence (P0AD68 1-577): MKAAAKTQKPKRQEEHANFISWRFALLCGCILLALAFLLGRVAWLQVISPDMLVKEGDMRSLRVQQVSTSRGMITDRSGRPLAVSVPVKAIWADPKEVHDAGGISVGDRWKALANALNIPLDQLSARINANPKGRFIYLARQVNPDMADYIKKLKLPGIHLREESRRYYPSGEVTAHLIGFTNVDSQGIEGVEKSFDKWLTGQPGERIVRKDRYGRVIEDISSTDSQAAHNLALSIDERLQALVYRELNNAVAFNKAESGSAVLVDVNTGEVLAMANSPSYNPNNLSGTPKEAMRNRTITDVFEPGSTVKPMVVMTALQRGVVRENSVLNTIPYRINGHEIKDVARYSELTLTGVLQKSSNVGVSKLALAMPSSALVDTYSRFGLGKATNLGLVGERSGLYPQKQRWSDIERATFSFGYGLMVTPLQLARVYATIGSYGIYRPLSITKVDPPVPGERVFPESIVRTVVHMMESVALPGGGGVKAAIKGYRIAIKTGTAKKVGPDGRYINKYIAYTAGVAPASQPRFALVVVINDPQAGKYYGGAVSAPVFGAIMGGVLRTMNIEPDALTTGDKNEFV

| SMILES | EC50 (E. coli K12 PBP3) | MIC (A. baumannii ATCC 19606; ATCC19606, read-out: Minimum Inhibitory Concentration, A. baumannii ATCC 19606) | MIC (E. coli 901C; 901C) | MIC (E. coli AG100; AG100, read-out: Minimum Inhibitory Concentration, E. coli AG100) | MIC [1] | MIC [2] | MIC [3] | MIC (P. aeruginosa ATCC 27853; ATCC27853, read-out: Minimum Inhibitory Concentration, P. aeruginosa ATCC 27853) | MIC (P. aeruginosa ATCC 35151; ATCC35151, read-out: Minimum Inhibitory Concentration, P. aeruginosa ATCC 35151) | MIC (A. baumannii ATCC 19606; [4]) | MIC (E. coli 901C; [5]) | MIC (E. coli AG100; [6]) | MIC (P. aeruginosa ATCC 27853; ATCC27853, MHB, read-out: Minimum Inhibitory Concentration, P. aeruginosa ATCC 27853) | MIC (P. aeruginosa ATCC 35151; [7]) |
| --- | --- | --- | --- | --- | --- | --- | --- | --- | --- | --- | --- | --- | --- | --- |
| N[C@@H](C(=O)N[C@H]1Cc2ccc(F)c(C(=O)O)c2OB1O)c1ccc(OS(=O)(=O)F)cc1 [Example 32, (R)-3-((R)-2-amino-2-(4-((fluorosulfonyl)oxy)phenyl)acetamido)-7-fluoro-2-hydroxy-3,4-dihydro-2H-benzo[e][1,2]oxaborinine-8-carboxylic acid] | > 500 µM | > 128 µg/mL | > 128 µg/mL | > 128 µg/mL | > 128 µg/mL | > 128 µg/mL | > 128 µg/mL | > 128 µg/mL | > 128 µg/mL | – | – | – | – | – |
| NCCCN1CCN(C(=O)NC(C(=O)N[C@H]2Cc3cccc(C(=O)O)c3OB2O)c2ccc(C(=O)O)cc2)C(=O)C1=O (stereo partly drawn) [Example 39, (3R)-3-(2-(4-(3-aminopropyl)-2,3-dioxopiperazine-1-carboxamido)-2-(4-carboxyphenyl)acetamido)-2-hydroxy-3,4-dihydro-2H-benzo[e][1,2]oxaborinine-8-carboxylic acid] | < 30 µM | – | – | – | > 128 µg/mL | > 128 µg/mL | 32 to 64 µg/mL (≈ 55 to 110 µM) | – | – | > 128 µg/mL | 0.5 to 1 µg/mL (≈ 0.86 to 1.72 µM) | 8 to 16 µg/mL (≈ 13.8 to 27.5 µM) | 8 to 16 µg/mL (≈ 13.8 to 27.5 µM) | < 0.25 µg/mL |
| CCN1CCN(C(=O)NC(C(=O)N[C@H]2Cc3ccc(O[C@@H]4CN[C@H](C(=O)N(C)C)C4)c(C(=O)O)c3OB2O)c2ccccc2)C(=O)C1=O (stereo partly drawn) [Example 59, (3R)-7-(((3S,5S)-5-(dimethylcarbamoyl)pyrrolidin-3-yl)oxy)-3-(2-(4-ethyl-2,3-dioxopiperazine-1-carboxamido)-2-phenylacetamido)-2-hydroxy-3,4-dihydro-2H-benzo[e][1,2]oxaborinine-8-carboxylic acid] | 30 to 500 µM | – | – | – | > 128 µg/mL | > 128 µg/mL | > 128 µg/mL | – | – | > 128 µg/mL | 2 to 4 µg/mL (≈ 3.01 to 6.02 µM) | > 128 µg/mL | – | 0.5 to 1 µg/mL (≈ 0.752 to 1.5 µM) |
| CCN1CCN(C(=O)NC(C(=O)N[C@H]2Cc3ccc(C=O)c(C(=O)O)c3OB2O)c2csc(N)n2)C(=O)C1=O (stereo partly drawn) [Example 57, (3R)-3-(2-(2-aminothiazol-4-yl)-2-(4-ethyl-2,3-dioxopiperazine-1-carboxamido)acetamido)-7-formyl-2-hydroxy-3,4-dihydro-2H-benzo[e][1,2]oxaborinine-8-carboxylic acid] | 30 to 500 µM | – | – | – | 32 to 64 µg/mL (≈ 57.3 to 115 µM) | > 128 µg/mL | 32 to 64 µg/mL (≈ 57.3 to 115 µM) | – | – | > 128 µg/mL | 2 to 4 µg/mL (≈ 3.58 to 7.16 µM) | > 128 µg/mL | – | 2 to 4 µg/mL (≈ 3.58 to 7.16 µM) |
| CCN1CCN(C(=O)NC(C(=O)N[C@H]2Cc3ccc(S)c(C(=O)O)c3OB2O)c2csc(N)n2)C(=O)C1=O (stereo partly drawn) [Example 54, (3R)-3-(2-(2-aminothiazol-4-yl)-2-(4-ethyl-2,3-dioxopiperazine-1-carboxamido)acetamido)-2-hydroxy-7-mercapto-3,4-dihydro-2H-benzo[e][1,2]oxaborinine-8-carboxylic acid] | 30 to 500 µM | – | – | – | > 128 µg/mL | > 128 µg/mL | > 128 µg/mL | – | – | > 128 µg/mL | 0.5 to 1 µg/mL (≈ 0.889 to 1.78 µM) | > 128 µg/mL | – | 8 to 16 µg/mL (≈ 14.2 to 28.4 µM) |
| CCN1CCN(C(=O)NC(C(=O)N[C@H]2Cc3ccc(CO)c(C(=O)O)c3OB2O)c2csc(N)n2)C(O)C1=O (stereo partly drawn) [Example 58, (3R)-3-(2-(2-aminothiazol-4-yl)-2-(4-ethyl-2-hydroxy-3-oxopiperazine-1-carboxamido)acetamido)-2-hydroxy-7-(hydroxymethyl)-3,4-dihydro-2H-benzo[el][1,2]oxaborinine-8-carboxylic acid] | 30 to 500 µM | – | – | – | > 128 µg/mL | > 128 µg/mL | > 128 µg/mL | – | – | > 128 µg/mL | 32 to 64 µg/mL (≈ 56.9 to 114 µM) | > 128 µg/mL | – | 8 to 16 µg/mL (≈ 14.2 to 28.5 µM) |
| CCN1CCN(C(=O)NC(C(=O)N[C@H]2Cc3ccc(OCCN)c(C(=O)O)c3OB2O)c2ccccc2)C(=O)C1=O (stereo partly drawn) [Example 60, (3R)-7-(2-aminoethoxy)-3-(2-(4-ethyl-2,3-dioxopiperazine-1-carboxamido)-2-phenylacetamido)-2-hydroxy-3,4-dihydro-2H-benzo[e][1,2]oxaborinine-8-carboxylic acid] | 30 to 500 µM | – | – | – | > 128 µg/mL | > 128 µg/mL | > 128 µg/mL | – | – | > 128 µg/mL | 8 to 16 µg/mL (≈ 14.1 to 28.2 µM) | > 128 µg/mL | – | 2 to 4 µg/mL (≈ 3.53 to 7.05 µM) |
